Where “and” joins values, the source holds several entries; their conditions need not be identical. Equal entries are not always repeated.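 Where inhibition never reached the appropriate level, the endpoint shown equals the highest concentration tested. Otherwise, values were interpolated linearly from a five-concentration, 48-hour dose response in 96-well plates. Abbreviation: GI50, concentration required for 50% inhibition of growth. TGI: concentration producing complete growth inhibition.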

The test system of this assay is MDA-MB-468 breast. Description: NCI anticancer screen, dose series, 48 h.
`Cc1nc2sc(C(=O)Nc3cccc(Cl)c3)c(N)c2cc1C(O)c1ccccc1` (stereo not given): the GI50 was 0.486 µM and the TGI was determined as 20.1 µM.

With `COc1ccc(C2CC(c3cccc(Nc4ccncc4)c3)=NN2c2ccccc2)cc1` (stereo not given), the GI50 is 1.42 µM and the TGI was determined as 2.82 µM.

With `COc1cc(/C=C/C(=O)/C=C/c2ccc(-n3ccnc3)cc2)ccc1O`, the GI50 is 2.2 µM and the TGI is 5.36 µM.

Consider `C#CCN(CCCOc1ccc(Cl)cc1Cl)CCCSC(=O)CCCCCN1/C(=C\C=C2/CCCC(/C=C/C3=[N+](CCCCCC(=O)[O-])c4ccccc4C3(C)C)=C2Cl)C(C)(C)c2ccccc21`, for which the GI50 is 1.35 µM and the TGI came to 3.67 µM.

For the compound `Clc1cc(Cl)cc(Nc2ccc3c(OCCCN4CCOCC4)cccc3n2)c1`, the GI50 was 2.08 µM and the TGI worked out at 4.33 µM.

Regarding `O=[N+]([O-])/C(=C/C=C/c1ccccc1)c1ccccc1`, the GI50 is 1.25 µM and the TGI came out at 3.09 µM.

Regarding `Cn1cc(C2=C(c3cccc([N+](=O)[O-])c3)C(=O)NC2=O)c2ccccc21`, the GI50 is 5.85 µM and the TGI was > 25 µM.

On to `CC(C)(C)c1cnc(CSc2cnc(NC(=O)C3CCNCC3)s2)o1`, for which the GI50 is 0.097 µM and 0.0794 µM; the TGI is 0.344 µM and 0.306 µM.

Consider `CN1CCC(C(=O)Nc2n[nH]c3nnc(-c4ccccc4)cc23)CC1`, for which the GI50 is > 18.1 µM and the TGI is > 25 µM.

As for `COc1ccccc1CNCCCN1C(=O)c2ccc3c4c(ccc(c24)C1=O)C(=O)N(CCCNCCCCN)C3=O`, the GI50 is 0.0907 µM and the TGI was 0.231 µM.

Consider `CCOC(=O)c1c(-c2ccc(Cl)cc2)c(C#N)c(=S)n(C2OC(COC(C)=O)C(OC(C)=O)C(OC(C)=O)C2OC(C)=O)c1C` (stereo not given), for which the GI50 is > 100 µM and the TGI was > 100 µM.

Regarding `COc1ccc([C@H]2c3[nH]c4ccccc4c3C[C@H]3C(=O)N(CCCCCCC(=O)NO)CC(=O)N23)cc1`, the GI50 is 1.43 µM and the TGI came out at 18.5 µM.

Consider `COc1ccc(-c2nn(-c3cccc(Cl)c3)cc2-c2c(C#N)c(=O)n3[nH]c(-c4ccc(C)o4)nc3c2C#N)cc1`, for which the GI50 was 1.34 µM and the TGI came out at 4.93 µM.

For `CCCCCCC1CCCCN1C(c1ccccc1)C(O)c1ccccc1` (stereo not given), the GI50 is 3.81 µM and the TGI stood at 14.4 µM.

With `O=C(/C=C/c1ccccn1)c1ccccc1`, the GI50 was 1.8 µM and the TGI was determined as 3.84 µM.

`COc1cc(C(=O)/C=C/c2c(C)n([O-])c3ccc(Cl)cc3[n+]2=O)cc(OC)c1OC`: the GI50 is 3.52 µM and the TGI was determined as 19.3 µM.

`COc1cc(-c2ccc[nH]2)[nH]c1/C=C1\N=C(C)C(C(=O)NC(C)C)=C1C`: the GI50 is 2.91 µM and the TGI stood at 16.8 µM.

Turning to `CN(Cc1cnc2nc(N)nc(N)c2n1)c1c(Cl)cc(C(=O)NC(CCC(=O)O)C(=O)O)cc1Br` (stereo not given), the GI50 is < 0.0118 µM and the TGI is > 100 µM.

As for `CC(C)(C)OC(=O)CC(S(=O)(=O)c1ccccc1)S(=O)(=O)c1ccccc1`, the GI50 was 1.71 µM and the TGI worked out at 3.2 µM.

Turning to `CNc1ccc(CSc2ccc(C)cc2)cc1`, the GI50 is 2.75 µM and the TGI is 9.9 µM.

As for `Nc1nc2c([nH]1)c1[nH]c3ccccc3c1c1[nH]c3ccccc3c21`, the GI50 was 2.02 µM and the TGI worked out at 4.9 µM.

Consider `CC(=O)CCN1CC2CN=NC2(C#N)C1` (stereo not given), for which the GI50 was > 100 µM and the TGI was > 100 µM.

In the case of `O=C(Nc1ccc(-n2cc(-c3ccncc3)c(-c3ccc(Cl)c(O)c3)n2)cc1)c1ccc(Cl)c(Cl)c1`, the GI50 was 4.43 µM and the TGI was > 100 µM.

Turning to `COc1cc(C(=O)Nc2ccc(-c3nc4ccccc4[nH]3)cc2)cc(OC)c1OC`, the GI50 was 11.9 µM and the TGI stood at 28.4 µM.

On to `Cc1ncc([N+](=O)[O-])n1CCOc1ccc(C(=O)/C=C/c2ccc(C(F)(F)F)cc2)cc1`, for which the GI50 was 3.92 µM and the TGI was found to be 21.8 µM.

Take `CN(C)CC(=O)N1CCc2c([nH]c3ccccc23)C1c1cccnc1` (stereo not given): the GI50 is 3.86 µM and the TGI is 52.9 µM.

As to `C=C(c1ccc(C(=O)NCCCn2ccnc2)cc1)c1cc2c(cc1C)C(C)(C)CCC2(C)C`, the GI50 was 1.04 µM and the TGI came out at 3.24 µM.

Regarding `COc1cc2c(cc1OC)C(Sc1ccc(Cl)cc1)c1c(nc(N)c(C#N)c1N)O2` (stereo not given), the GI50 was 0.794 µM and the TGI came to 2.7 µM.

With `COc1ccc(-c2nc3sccn3c2/C=C/C(=O)c2cc(OC)c(OC)c(OC)c2)cc1`, the GI50 is 2.44 µM and the TGI worked out at 12.4 µM.

For `OCCN1CCCN(CCCN2c3ccccc3Sc3ccc(C(F)(F)F)cc32)CC1`, the GI50 is 1.61 µM and the TGI was determined as 3.57 µM.
